According to patent EP0501354B1, “Anticataract composition” (Senju Pharmaceutical Co., Ltd., priority 1991, dated 1992):

Tests used:
[1] = tested on: streptozotocin-induced diabetic cataract; test: Inhibitory effect on streptozotocin-induced diabetic cataract (slit lamp, rating scale of Sasaki et al.); format: in vivo, male SD rats; conditions: for time at which cataract scores were reached compared with control group / degree of progression of cataract, time series analysis of variance vs control group: 100 mg/kg/day intraperitoneally once a day for 56 days; for time at which cataract scores were reached compared with control group: rating scale of Sasaki et al. 0-6; for degree of progression of cataract, time series analysis of variance vs control group: scored every seven days; for vacuolation rate (of the eyes): after 7 days, 100 mg/kg/day intraperitoneally once a day, STZ 70 mg/kg i.v. rats, control group 45%
Protocol: Streptozotocin (hereafter abbreviated as STZ), 70 mg/kg, was administered intravenously to 28 male SD rats aged 4 weeks to induce diabetes. Thereafter, the animals were divided into three groups (two groups consisting of 10 animals each and a group consisting of 8 animals). […] The lens was examined with a slit lamp under mydriasis with Mydrin-P before the beginning of drug administration and every seven days after initiation of administration. The degree of cataract was scored according to the rating scale of Sasaki et al. (Ophthalmic Res. 15: 185-190, 1983) and the anticataract activity of each drug was tested by time series analysis of variance. Body weights were taken on each observation day. […] Rating scale of Sasaki et al. 0: No abnormality. 1: Vacuoles are present in the equator of the lens. 2: Vacuoles spread toward the anterior pole beneath the cortex of the anterior lens capsule. 3: Vacuole begin to merge. 4: The deep layer of the cortex of the anterior lens capsule is cloudy. 5: The central part of the lens is milk white in color. 6: Virtually the entire lens is milk white in color (mature cataract).

[2] = Body weight during treatment of streptozotocin-diabetic rats; format: in vivo, male SD rats; conditions: 100 mg/kg/day intraperitoneally once a day for 56 days; STZ-diabetic rats
Protocol: Streptozotocin (hereafter abbreviated as STZ), 70 mg/kg, was administered intravenously to 28 male SD rats aged 4 weeks to induce diabetes. Thereafter, the animals were divided into three groups (two groups consisting of 10 animals each and a group consisting of 8 animals). One group received 2% glutathione (dissolved in physiological saline, hereafter referred to as GSH group), another group S-(diethyl α,β-carboxyethyl)glutathione sodium (dissolved in physiological saline, hereafter referred to as DCE-EtGS group), and a third group physiological saline (hereafter referred to as control group), all intraperitoneally in a volume of 0.5 ml/100 g body weight once a day for 56 days (100 mg/kg/day as active substance). The lens was examined with a slit lamp under mydriasis with Mydrin-P before the beginning of drug administration and every seven days after initiation of administration. The degree of cataract was scored according to the rating scale of Sasaki et al. (Ophthalmic Res. 15: 185-190, 1983) and the anticataract activity of each drug was tested by time series analysis of variance. Body weights were taken on each observation day. Incidentally, blood glucose levels were determined 5 days after administration of STZ and the study was continued only after confirmation of hyperglycemia.

Row | Compound | time at which cataract scores were reached compared with control group [1] | degree of progression of cataract, time series analysis of variance vs control group [1] | vacuolation rate (of the eyes) [1] [%] | Body weight gain vs control group [2]
1 | N[C@@H](CCC(=O)N[C@@H](CS)C(=O)NCC(=O)O)C(=O)O [GSH, glutathione, reference compound] | scores of 5 and 6 were reached later than in the control group | no significant difference from the control group | 56.3 | –
2 | CCOC(=O)CC(SCC(NC(=O)CCC(N)C(=O)O)C(=O)NCC(=O)O)C(=O)OCC (stereo not drawn) [DCE-EtGS, S-(Diethyl α,β-dicarboxyethyl)glutathione sodium] | scores of 2, 4, 5 and 6 being reached later than in the control group | significant delay of progression | 25 | significantly greater
